According to patent US10975056B2 (GlaxoSmithKline Intellectual Property Development Limited, priority 2016, dated 2021):
Several values for one entry are separate records, joined by “and”; a condition that tells them apart may be missing. Equal values may be shown once. Where a name gives a salt, the structure may show the parent alone. Read-outs that look alike come from different tables or passages of the source.

Legend:
[1] = target: DNMT1 (Homo sapiens, UniProt P26358); experiment: DNMT1 biochemical activity, breaklight assay and/or SPA assay
DNMT1, sequence (P26358 whole entry, looked up): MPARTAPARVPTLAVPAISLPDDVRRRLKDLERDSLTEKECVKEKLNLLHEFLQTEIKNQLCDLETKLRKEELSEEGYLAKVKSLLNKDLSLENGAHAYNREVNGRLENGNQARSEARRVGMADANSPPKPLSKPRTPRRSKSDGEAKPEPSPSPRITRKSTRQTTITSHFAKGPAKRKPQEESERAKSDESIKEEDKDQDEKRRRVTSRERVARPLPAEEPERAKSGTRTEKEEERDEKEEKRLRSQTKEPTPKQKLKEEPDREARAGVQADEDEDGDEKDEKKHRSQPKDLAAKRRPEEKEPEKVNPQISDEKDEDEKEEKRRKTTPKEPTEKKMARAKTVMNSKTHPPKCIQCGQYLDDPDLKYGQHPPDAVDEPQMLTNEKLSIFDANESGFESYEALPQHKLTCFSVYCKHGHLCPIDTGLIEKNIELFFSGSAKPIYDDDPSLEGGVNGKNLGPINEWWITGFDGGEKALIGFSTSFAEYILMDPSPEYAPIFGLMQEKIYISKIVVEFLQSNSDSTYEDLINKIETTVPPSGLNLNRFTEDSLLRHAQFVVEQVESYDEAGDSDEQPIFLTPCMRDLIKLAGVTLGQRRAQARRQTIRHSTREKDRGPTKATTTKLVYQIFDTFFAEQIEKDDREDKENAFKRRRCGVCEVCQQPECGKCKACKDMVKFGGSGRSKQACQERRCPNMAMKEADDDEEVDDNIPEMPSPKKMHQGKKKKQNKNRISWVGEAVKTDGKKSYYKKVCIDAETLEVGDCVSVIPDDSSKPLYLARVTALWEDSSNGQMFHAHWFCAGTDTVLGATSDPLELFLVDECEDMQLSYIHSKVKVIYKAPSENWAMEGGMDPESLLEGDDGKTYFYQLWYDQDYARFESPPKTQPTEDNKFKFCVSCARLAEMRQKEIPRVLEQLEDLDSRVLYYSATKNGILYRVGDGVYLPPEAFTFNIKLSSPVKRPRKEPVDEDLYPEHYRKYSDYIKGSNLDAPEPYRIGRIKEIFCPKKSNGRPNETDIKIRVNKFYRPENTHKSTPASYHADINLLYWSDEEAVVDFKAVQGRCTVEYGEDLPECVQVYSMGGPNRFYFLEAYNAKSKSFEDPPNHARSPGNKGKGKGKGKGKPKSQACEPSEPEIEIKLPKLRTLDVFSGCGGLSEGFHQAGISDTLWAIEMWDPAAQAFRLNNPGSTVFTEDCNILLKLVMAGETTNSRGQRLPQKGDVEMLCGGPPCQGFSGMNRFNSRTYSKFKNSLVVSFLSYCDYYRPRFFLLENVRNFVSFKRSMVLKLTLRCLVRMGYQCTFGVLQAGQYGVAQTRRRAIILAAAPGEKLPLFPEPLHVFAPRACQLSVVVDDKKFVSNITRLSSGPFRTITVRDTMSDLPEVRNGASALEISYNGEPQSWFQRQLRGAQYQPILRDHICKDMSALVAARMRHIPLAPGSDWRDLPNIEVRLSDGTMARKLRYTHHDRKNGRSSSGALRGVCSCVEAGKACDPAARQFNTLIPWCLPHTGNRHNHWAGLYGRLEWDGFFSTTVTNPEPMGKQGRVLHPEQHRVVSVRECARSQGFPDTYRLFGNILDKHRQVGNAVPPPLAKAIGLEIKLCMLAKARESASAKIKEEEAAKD

[2] = system: erythroid progenitor cells (EPCs); experiment: Fetal hemoglobin (HbF) ELISA in day 7 erythroid progenitor cells; type: cell-based, human; details: Homo sapiens, Erythroid progenitor cell, HbF ELISA, day 7 EPCs, 5 days; read-out: EPC ELISA (pEC50 category) (converted);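 further: for fetal hemoglobin induction normalized to vehicle-treated cells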
Summary of the method: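 CD34+-derived EPCs, 1,000 cells/well, rhEPO 3 U/mL; Compound A 22-pt series, […]; 5 d, 37° C, 5% CO2. Freeze-thaw lysis, anti-HbF capture + HRP anti-HbF, TMB, OD450. Normalized to DMSO wells.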

[3] = binned activity in either the breaklight or the SPA assay, read-out: DNMT1 BioChemical (pIC50 category) (converted)
[4] = binned activity in either the breaklight or the SPA assay

| SMILES | IC50 [1, 3] | EC50 [2] | DNMT1 BioChemical (pIC50 category) [1, 4] | IC50 ([1]; breaklight assay and/or SPA assay, repeated experimental runs, read-out: average pIC50 against DNMT1 (converted)) |
| --- | --- | --- | --- | --- |
| CCc1c(C#N)c(SC(C(N)=O)c2ccccc2)nc(N2CCCN(CC(C)(C)O)CC2)c1C#N (stereo not drawn) [Example 194, 2-((3,5-Dicyano-4-ethyl-6-(4-(2-hydroxy-2-methylpropyl)-1,4-diazepan-1-yl)pyridin-2-yl)thio)-2-phenylacetamide] | 316 to 1000 nM | < 316 nM | – | – |
| CCc1c(C#N)c(SC(C(N)=O)c2ccccc2)nc(N2CCN(Cc3cncs3)CC2)c1C#N (stereo not drawn) [Example 195, 2-((3,5-Dicyano-4-ethyl-6-(4-(thiazol-5-ylmethyl)piperazin-1-yl)pyridin-2-yl)thio)-2-phenylacetamide] | 316 to 1000 nM | 316 to 1000 nM | – | – |
| CCc1c(C#N)c(SC(C(N)=O)c2ccc(F)cc2)nc(N2CCNCC2)c1C#N (stereo not drawn) [Example 196, 2-((3,5-Dicyano-4-ethyl-6-(piperazin-1-yl)pyridin-2-yl)thio)-2-(4-fluorophenyl)acetamide, Trifluoroacetic Acid Salt] | – | < 316 nM | D (Category D: ≥6.5) | – |
| CCc1c(C#N)c(SC(C(N)=O)c2ccccc2)nc(N2CCN(Cc3cnsc3)CC2)c1C#N (stereo not drawn) [Example 197, 2-((3,5-Dicyano-4-ethyl-6-(4-(isothiazol-4-ylmethyl)piperazin-1-yl)pyridin-2-yl)thio)-2-phenylacetamide] | 316 to 1000 nM | 316 to 1000 nM | – | – |
| CCc1c(C#N)c(SC(C(N)=O)c2ccc(F)cc2)nc(N(C)C)c1C#N (stereo not drawn) [Example 198, 2-((3,5-Dicyano-6-(dimethylamino)-4-ethylpyridin-2-yl)thio)-2-(4-fluorophenyl)acetamide] | – | 316 to 1000 nM | D (Category D: ≥6.5) | – |
| CCc1c(C#N)c(SC(C(N)=O)c2ccc(F)cn2)nc(N(C)C)c1C#N (stereo not drawn) [Example 199] | – | > 31600 nM | D (Category D: ≥6.5) | – |
| CCc1c(C#N)c(SC(C(N)=O)c2ccccc2)nc(N2CCN(Cc3ccoc3)CC2)c1C#N (stereo not drawn) [Example 200, 2-((3,5-Dicyano-4-ethyl-6-(4-(furan-3-ylmethyl)piperazin-1-yl)pyridin-2-yl)thio)-2-phenylacetamide] | 316 to 1000 nM | 1000 to 31600 nM | – | – |
| CCc1c(C#N)c(SCCN2CCOCC2)nc(SC(C(N)=O)c2ccccc2)c1C#N (stereo not drawn) [Example 201, 2-((3,5-Dicyano-4-ethyl-6-((2-morpholinoethyl)thio)pyridin-2-yl)thio)-2-phenylacetamide] | 316 to 1000 nM | 316 to 1000 nM | – | – |
| CSc1c(C#N)c(SC(C(N)=O)c2ccccc2)nc(N2CCCN(C)CC2)c1C#N (stereo not drawn) [Example 202, 2-((3,5-Dicyano-6-(4-methyl-1,4-diazepan-1-yl)-4-(methylthio)pyridin-2-yl)thio)-2-phenylacetamide] | 316 to 1000 nM | 316 to 1000 nM | – | – |
| CCc1c(Cl)c(SC(C(N)=O)c2ccccc2)nc(N2CCCN(CCO)CC2)c1Cl (stereo not drawn) [Example 203, 2-((3,5-Dichloro-4-ethyl-6-(4-(2-hydroxyethyl)-1,4-diazepan-1-yl)pyridin-2-yl)thio)-2-phenylacetamide] | 316 to 1000 nM | > 31600 nM | – | – |
| CCc1c(C#N)c(SC(C(N)=O)c2ccccc2)nc(N2CC3NCCOC3C2)c1C#N (stereo not drawn) [Example 204, 2-((3,5-Dicyano-4-ethyl-6-(hexahydropyrrolo[3,4-b][1,4]oxazin-6(2H)-yl)pyridin-2-yl)thio)-2-phenylacetamide] | 316 to 1000 nM | 1000 to 31600 nM | – | – |
| CCc1c(C#N)c(SC(C(N)=O)c2ccc(C)cn2)nc(N2CCCN(C)CC2)c1C#N (stereo not drawn) [Example 205, 2-((3,5-Dicyano-4-ethyl-6-(4-methyl-1,4-diazepan-1-yl)pyridin-2-yl)thio)-2-(5-methylpyridin-2-yl)acetamide] | – | < 316 nM | D (Category D: ≥6.5) | – |
| CCc1c(C#N)c(SC(C(N)=O)c2cccc(F)n2)nc(N2CCCN(C)CC2)c1C#N (stereo not drawn) [Example 206, 2-((3,5-Dicyano-4-ethyl-6-(4-methyl-1,4-diazepan-1-yl)pyridin-2-yl)thio)-2-(6-fluoropyridin-2-yl)acetamide] | 316 to 1000 nM | > 31600 nM | – | – |
| CCc1c(C#N)c(SC(C(N)=O)c2ccc(F)cc2)nc(N2CCC(N(C)C)CC2)c1C#N (stereo not drawn) [Example 207, 2-((3,5-Dicyano-6-(4-(dimethylamino)piperidin-1-yl)-4-ethylpyridin-2-yl)thio)-2-(4-fluorophenyl)acetamide] | 316 to 1000 nM | < 316 nM | – | – |
| CCc1c(C#N)c(SC(C(N)=O)c2cc(C)ccn2)nc(N2CCCN(C)CC2)c1C#N (stereo not drawn) [Example 208] | 316 to 1000 nM | 316 to 1000 nM | – | – |
| CCc1c(C#N)c(SC(C(N)=O)c2ncccc2OC)nc(N2CCCN(C)CC2)c1C#N (stereo not drawn) [Example 209, 2-((3,5-Dicyano-4-ethyl-6-(4-methyl-1,4-diazepan-1-yl)pyridin-2-yl)thio)-2-(3-methoxypyridin-2-yl)acetamide] | 316 to 1000 nM | 316 to 1000 nM | – | – |

Now from value to molecule:

| IC50 [1, 3] | EC50 [2] | DNMT1 BioChemical (pIC50 category) [1, 4] | IC50 ([1]; breaklight assay and/or SPA assay, repeated experimental runs, read-out: average pIC50 against DNMT1 (converted)) | SMILES |
| --- | --- | --- | --- | --- |
| – | < 316 nM | D (Category D: ≥6.5) | – | CCc1c(C#N)c(SC(C(N)=O)c2ccc(F)cc2F)nc(N2CCC(N(C)C)CC2)c1C#N (stereo not drawn) [Example 210, 2-((3,5-Dicyano-6-(4-(dimethylamino)piperidin-1-yl)-4-ethylpyridin-2-yl)thio)-2-(2,4-difluorophenyl)acetamide] |
| 316 to 1000 nM | < 316 nM | – | – | CCc1c(C#N)c(SC(C(N)=O)c2ccc(F)cn2)nc(N2CCC(N3CCCC3)CC2)c1C#N (stereo not drawn) [Example 211, 2-((3,5-Dicyano-4-ethyl-6-(4-(pyrrolidin-1-yl)piperidin-1-yl)pyridin-2-yl)thio)-2-(5-fluoropyridin-2-yl)acetamide, Formic Acid Salt] |
| 316 to 1000 nM | 1000 to 31600 nM | – | – | CCOc1c(C#N)c(SC(C)C(N)=O)nc(N2CCCN(CCO)CC2)c1C#N (stereo not drawn) [Example 212, 2-((3,5-Dicyano-4-ethoxy-6-(4-(2-hydroxyethyl)-1,4-diazepan-1-yl)pyridin-2-yl)thio)propanamide] |
| 316 to 1000 nM | 1000 to 31600 nM | – | – | CCCOc1c(C#N)c(SC(C(N)=O)c2ccccc2)nc(N2CCCN(CCO)CC2)c1C#N (stereo not drawn) [Example 213, 2-((3,5-Dicyano-6-(4-(2-hydroxyethyl)-1,4-diazepan-1-yl)-4-propoxypyridin-2-yl)thio)-2-phenylacetamide] |
| 1000 to 31600 nM | > 31600 nM | – | – | CCc1c(C#N)c(SC(C(N)=O)c2cc(OC)ccn2)nc(N2CCCN(C)CC2)c1C#N (stereo not drawn) [Example 214, 2-((3,5-Dicyano-4-ethyl-6-(4-methyl-1,4-diazepan-1-yl)pyridin-2-yl)thio)-2-(4-methoxypyridin-2-yl)acetamide] |
| – | < 316 nM | D (Category D: ≥6.5) | – | CCc1c(C#N)c(SC(C(N)=O)c2ccccc2)nc(N2CCC3(CCN(C)C3)CC2)c1C#N (stereo not drawn) [Example 215, 2-((3,5-Dicyano-4-ethyl6-(2-methyl-2,8-diazaspiro[4.5]decan-8-yl)pyridin-2-yl)thio)-2-phenylacetamide] |
| 1000 to 31600 nM | < 316 nM | – | ≥ 1000 nM and 1580 nM | CCc1c(C#N)c(SC(C(N)=O)c2ccc(F)c(F)c2)nc(N2CCC(N(C)C)CC2)c1C#N (stereo not drawn) [Example 216, 2-((3,5-Dicyano-6-(4-(dimethylamino)piperidin-1-yl)-4-ethylpyridin-2-yl)thio)-2-(3,4-difluorophenyl)acetamide] |
| 316 to 1000 nM | 1000 to 31600 nM | – | – | CCc1c(C#N)c(SC(C(N)=O)c2ccccc2)nc(N2CCC(C(N)=O)CC2)c1C#N (stereo not drawn) [Example 217, 1-(6-((2-Amino-2-oxo-1-phenylethyl)thio)-3,5-dicyano-4-ethylpyridin-2-yl)piperidine-4-carboxamide] |
| 316 to 1000 nM | < 316 nM | – | – | CCc1c(C#N)c(SCCN(C)C)nc(SC(C(N)=O)c2ccccc2)c1C#N (stereo not drawn) [Example 218, 2-((3,5-Dicyano-6-((2-(dimethylamino)ethyl)thio)-4-ethylpyridin-2-yl)thio)-2-phenylacetamide] |
| 316 to 1000 nM | 1000 to 31600 nM | – | – | CCc1c(C#N)c(SC(C(N)=O)c2ccccc2)nc(N2C[C@@H](O)[C@@H](O)C2)c1C#N (stereo partly drawn) [Example 219, 2-((3,5-Dicyano-6-((3S,4R)-3,4-dihydroxypyrrolidin-1-yl)-4-ethylpyridin-2-yl)thio)-2-phenylacetamide] |
| 316 to 1000 nM | < 316 nM | – | – | CCc1c(C#N)c(SC(C(N)=O)c2ncccc2F)nc(N2CCCN(C)CC2)c1C#N (stereo not drawn) [Example 220, 2-((3,5-Dicyano-4-ethyl-6-(4-methyl-1,4-diazepan-1-yl)pyridin-2-yl)thio)-2-(3-fluoropyridin-2-yl) acetamide] |
| 316 to 1000 nM | < 316 nM | – | – | CCc1c(C#N)c(SC(C(N)=O)c2ccc(OC)cn2)nc(N2CCCN(C)CC2)c1C#N (stereo not drawn) [Example 221, 2-((3,5-Dicyano-4-ethyl-6-(4-methyl-1,4-diazepan-1-yl)pyridin-2-yl)thio)-2-(5-methoxypyridin-2-yl)acetamide] |
| 1000 to 31600 nM | 316 to 1000 nM | – | – | CCc1c(C#N)c(SC(C(N)=O)c2ccc(F)cc2)nc(N2CCN(C(C)(C)CO)CC2)c1C#N (stereo not drawn) [Example 222, 2-((3,5-Dicyano-4-ethyl-6-(4-(1-hydroxy-2-methylpropan-2-yl)piperazin-1-yl)pyridin-2-yl)thio)-2-(4-fluorophenyl)acetamide] |
| 316 to 1000 nM | 1000 to 31600 nM | – | – | CCc1c(C#N)c(SC(C(N)=O)c2cccc(C(F)(F)F)c2)nc(N2CCCN(C)CC2)c1C#N (stereo not drawn) [Example 223, 2-((3,5-Dicyano-4-ethyl-6-(4-methyl-1,4-diazepan-1-yl)pyridin-2-yl)thio)-2-(3-(trifluoromethyl)phenyl)acetamide] |
| 316 to 1000 nM | 316 to 1000 nM | – | – | CCc1c(C#N)c(SC(C(N)=O)c2ccccc2)nc(N2CCC(OCCO)CC2)c1C#N (stereo not drawn) [Example 224, 2-((3,5-Dicyano-4-ethyl-6-(4-(2-hydroxyethoxy)piperidin-1-yl)pyridin-2-yl)thio)-2-phenylacetamide] |
